Experimental findings from ChEMBL document CHEMBL5665443, “Enzyme Inhibitor Single Concentration assay results for EUbOPEN Chemogenomics Library” (2024) are described below.

In assay [1] the target is Uracil-DNA glycosylase (Homo sapiens) (UniProt P13051). Conditions: Hit No.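 Also: UNG excision on a quenched double-stranded DNA oligo probe, with APE1 added for strand incision and turnover, read as fluorescence at 594 nm as strands separate.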
Description: Inhibition of UNG by quantifying inhibition of UNG-mediated cleavage and dissociation of quenched duplex DNA oligonucleotides, measured as fluorescence at 594 nm. To generate a functional strand incision and increase turn-over this assay is coupled to APE1.
In assay [2] the target is N-glycosylase/DNA lyase (Homo sapiens) (UniProt O15527). As to conditions: Hit No.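 Also: OGG1 cleavage of a quenched duplex DNA oligonucleotide, coupled to APE1 for strand incision, read as fluorescence at 594 nm.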
Description: Inhibition of OGG1 by quantifying inhibition of OGG1-mediated cleavage and dissociation of quenched duplex DNA oligonucleotides, measured as fluorescence at 594 nm. To generate a functional strand incision and increase turn-over this assay is coupled to APE1.
The target of assay [3] is Endonuclease 8-like 1 (Homo sapiens) (UniProt Q96FI4). As to conditions: Hit No.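 Also: fluorescence at 594 nm from quenched duplex DNA oligonucleotides released by NEIL1 cleavage and strand separation, reported as reduction of this enzyme activity.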
Description: Inhibition of NEIL1 by quantifying inhibition of NEIL1-mediated cleavage and dissociation of quenched duplex DNA oligonucleotides, measured as fluorescence at 594 nm.
In assay [4] the target is T1, Endonuclease III-like protein 1 (Homo sapiens) (UniProt P78549).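 Also: enzyme assay tracking NTHL1 cutting and release of a quenched double-stranded DNA oligo substrate, read as fluorescence at 594 nm.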
T1 sequence (whole entry): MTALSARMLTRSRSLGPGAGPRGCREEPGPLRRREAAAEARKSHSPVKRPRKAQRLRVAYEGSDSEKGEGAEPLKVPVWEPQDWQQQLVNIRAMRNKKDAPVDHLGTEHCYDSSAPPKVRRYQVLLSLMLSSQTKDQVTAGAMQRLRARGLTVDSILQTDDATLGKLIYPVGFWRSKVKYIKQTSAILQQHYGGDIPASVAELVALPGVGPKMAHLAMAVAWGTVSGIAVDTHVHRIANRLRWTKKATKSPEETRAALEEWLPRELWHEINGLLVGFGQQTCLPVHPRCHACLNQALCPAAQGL
Conditions: Hit No.
Description: Inhibition of NTHL1 by quantifying inhibition of NTHL1-mediated cleavage and dissociation of quenched duplex DNA oligonucleotides, measured as fluorescence at 594 nm.

The target in assay [5] is T2, Single-strand selective monofunctional uracil DNA glycosylase (Homo sapiens) (UniProt Q53HV7).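 Also: enzymatic SMUG1 assay coupled with APE1, reading fluorescence at 594 nm released when a quenched double-stranded DNA oligonucleotide substrate is cleaved and separated.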
T2 sequence (whole entry): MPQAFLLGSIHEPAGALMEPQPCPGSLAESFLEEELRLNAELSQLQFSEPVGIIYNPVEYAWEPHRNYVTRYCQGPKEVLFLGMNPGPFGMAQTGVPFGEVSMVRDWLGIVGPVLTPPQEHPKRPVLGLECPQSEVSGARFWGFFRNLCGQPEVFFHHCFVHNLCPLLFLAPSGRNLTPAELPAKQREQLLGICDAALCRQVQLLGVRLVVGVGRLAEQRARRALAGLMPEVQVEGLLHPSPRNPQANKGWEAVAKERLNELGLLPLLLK
Conditions: Hit No.
Description: Inhibition of SMUG1 by quantifying inhibition of SMUG1-mediated cleavage and dissociation of quenched duplex DNA oligonucleotides, measured as fluorescence at 594 nm. To generate a functional strand incision and increase turn-over this assay is coupled to APE1.

Assay [6] deals with G/T mismatch-specific thymine DNA glycosylase (Homo sapiens) (UniProt Q13569). Conditions: Hit No.
Description: Inhibition of TDG by quantifying inhibition of TDG-mediated cleavage and dissociation of quenched duplex DNA oligonucleotides, measured as fluorescence at 594 nm. To generate a functional strand incision and increase turn-over this assay is coupled to APE1.
In assay [7] the target is T3, Adenine DNA glycosylase (Homo sapiens) (UniProt Q9UIF7).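 Also: human MUTYH activity read as 594 nm fluorescence from cleavage and release of a quenched DNA duplex, coupled with APE1 for strand incision, lower signal meaning inhibition.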
T3 sequence (whole entry): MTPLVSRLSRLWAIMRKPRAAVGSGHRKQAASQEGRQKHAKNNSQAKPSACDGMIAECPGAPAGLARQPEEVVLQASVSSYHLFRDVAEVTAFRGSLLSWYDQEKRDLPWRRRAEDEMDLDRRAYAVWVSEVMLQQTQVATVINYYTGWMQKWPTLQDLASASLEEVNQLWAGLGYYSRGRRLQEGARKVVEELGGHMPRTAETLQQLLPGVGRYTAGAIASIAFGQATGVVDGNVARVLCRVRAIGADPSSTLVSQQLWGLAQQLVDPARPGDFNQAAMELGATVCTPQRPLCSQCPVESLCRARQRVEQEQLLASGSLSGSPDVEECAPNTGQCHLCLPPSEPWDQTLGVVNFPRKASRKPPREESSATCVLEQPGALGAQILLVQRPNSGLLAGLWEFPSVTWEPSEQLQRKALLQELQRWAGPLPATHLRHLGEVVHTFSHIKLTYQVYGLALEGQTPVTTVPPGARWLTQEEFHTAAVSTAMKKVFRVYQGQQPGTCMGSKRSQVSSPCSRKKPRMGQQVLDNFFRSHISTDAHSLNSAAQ
Description: Inhibition of MUTYH by quantifying inhibition of MUTYH-mediated cleavage and dissociation of quenched duplex DNA oligonucleotides, measured as fluorescence at 594 nm. To generate a functional strand incision and increase turn-over this assay is coupled to APE1.

Assay [8] concerns the target T4, Endonuclease 8-like 2 (Homo sapiens) (UniProt Q969S2).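 Also: fluorescence at 594 nm reports NEIL2 cutting and release of a quenched double-stranded DNA oligo substrate, reduced signal read as inhibition.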
T4 sequence (whole entry): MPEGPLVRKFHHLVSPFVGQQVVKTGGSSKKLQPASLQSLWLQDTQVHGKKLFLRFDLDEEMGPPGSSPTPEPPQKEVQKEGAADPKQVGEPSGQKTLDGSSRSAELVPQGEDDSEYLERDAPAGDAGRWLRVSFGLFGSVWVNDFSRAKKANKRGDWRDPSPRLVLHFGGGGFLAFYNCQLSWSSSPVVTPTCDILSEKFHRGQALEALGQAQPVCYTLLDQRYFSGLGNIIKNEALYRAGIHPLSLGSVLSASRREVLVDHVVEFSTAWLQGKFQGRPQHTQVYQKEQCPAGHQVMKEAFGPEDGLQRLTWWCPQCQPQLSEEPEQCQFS
Description: Inhibition of NEIL2 by quantifying inhibition of NEIL2-mediated cleavage and dissociation of quenched duplex DNA oligonucleotides, measured as fluorescence at 594 nm.

For assay [9], the target named is Methyl-CpG-binding domain protein 4 (Homo sapiens) (UniProt O95243). Conditions: Hit No.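 Also: MBD4 activity read as fluorescence at 594 nm from cleavage and release of a quenched duplex DNA oligonucleotide, with APE1 coupled to incise the strand and raise turnover.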
Description: Inhibition of MBD4 by quantifying inhibition of MBD4-mediated cleavage and dissociation of quenched duplex DNA oligonucleotides, measured as fluorescence at 594 nm. To generate a functional strand incision and increase turn-over this assay is coupled to APE1.
[10] abbreviates: Compound Concentration 10.0 uM, Hit No.
The mark [11] stands for this setting: Compound Concentration 1.0 uM, Hit No.
The mark [12] stands for this setting: Compound Concentration 1.0 uM, Hit Yes.

N-glycosylase/DNA lyase (Homo sapiens), sequence (O15527 whole entry): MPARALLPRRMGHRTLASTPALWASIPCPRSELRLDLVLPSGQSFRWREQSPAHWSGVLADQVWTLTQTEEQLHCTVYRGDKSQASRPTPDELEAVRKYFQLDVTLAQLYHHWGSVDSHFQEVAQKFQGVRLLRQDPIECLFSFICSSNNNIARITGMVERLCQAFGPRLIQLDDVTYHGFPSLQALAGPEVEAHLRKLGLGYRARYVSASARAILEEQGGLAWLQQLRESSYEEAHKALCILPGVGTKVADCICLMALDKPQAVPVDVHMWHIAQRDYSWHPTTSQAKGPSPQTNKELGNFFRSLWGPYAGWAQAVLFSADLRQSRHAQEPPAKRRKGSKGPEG
G/T mismatch-specific thymine DNA glycosylase (Homo sapiens), sequence (Q13569 whole entry): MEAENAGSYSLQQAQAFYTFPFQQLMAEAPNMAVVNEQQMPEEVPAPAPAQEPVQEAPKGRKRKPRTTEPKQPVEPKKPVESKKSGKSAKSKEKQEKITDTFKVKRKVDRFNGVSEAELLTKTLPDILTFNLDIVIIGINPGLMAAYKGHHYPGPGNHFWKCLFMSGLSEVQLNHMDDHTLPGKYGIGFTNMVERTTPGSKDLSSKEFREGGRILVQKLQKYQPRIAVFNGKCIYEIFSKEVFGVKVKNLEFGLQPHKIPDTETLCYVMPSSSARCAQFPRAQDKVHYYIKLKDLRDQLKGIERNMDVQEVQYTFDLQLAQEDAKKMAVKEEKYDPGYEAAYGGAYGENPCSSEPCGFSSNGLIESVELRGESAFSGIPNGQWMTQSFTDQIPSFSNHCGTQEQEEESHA
Uracil-DNA glycosylase (Homo sapiens), sequence (P13051 whole entry): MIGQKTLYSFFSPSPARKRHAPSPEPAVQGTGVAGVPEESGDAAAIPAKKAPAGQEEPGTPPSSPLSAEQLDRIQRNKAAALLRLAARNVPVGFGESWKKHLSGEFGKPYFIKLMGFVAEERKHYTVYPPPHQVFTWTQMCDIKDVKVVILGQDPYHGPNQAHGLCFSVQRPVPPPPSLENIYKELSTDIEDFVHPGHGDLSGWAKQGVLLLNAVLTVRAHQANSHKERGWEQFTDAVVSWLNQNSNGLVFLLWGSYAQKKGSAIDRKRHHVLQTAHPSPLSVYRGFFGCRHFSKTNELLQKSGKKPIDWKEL
Endonuclease 8-like 1 (Homo sapiens), sequence (Q96FI4 whole entry): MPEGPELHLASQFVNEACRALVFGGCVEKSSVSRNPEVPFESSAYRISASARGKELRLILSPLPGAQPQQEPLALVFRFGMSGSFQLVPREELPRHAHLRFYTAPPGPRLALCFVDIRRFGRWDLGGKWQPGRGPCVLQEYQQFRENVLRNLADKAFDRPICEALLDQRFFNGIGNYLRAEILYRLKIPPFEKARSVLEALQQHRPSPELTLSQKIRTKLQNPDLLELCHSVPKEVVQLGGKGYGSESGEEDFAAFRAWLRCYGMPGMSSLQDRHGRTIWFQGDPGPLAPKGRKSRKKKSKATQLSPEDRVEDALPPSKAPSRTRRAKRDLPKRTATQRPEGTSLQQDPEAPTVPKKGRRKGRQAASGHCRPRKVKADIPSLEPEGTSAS
Methyl-CpG-binding domain protein 4 (Homo sapiens), sequence (O95243 whole entry, the tested form may be a part): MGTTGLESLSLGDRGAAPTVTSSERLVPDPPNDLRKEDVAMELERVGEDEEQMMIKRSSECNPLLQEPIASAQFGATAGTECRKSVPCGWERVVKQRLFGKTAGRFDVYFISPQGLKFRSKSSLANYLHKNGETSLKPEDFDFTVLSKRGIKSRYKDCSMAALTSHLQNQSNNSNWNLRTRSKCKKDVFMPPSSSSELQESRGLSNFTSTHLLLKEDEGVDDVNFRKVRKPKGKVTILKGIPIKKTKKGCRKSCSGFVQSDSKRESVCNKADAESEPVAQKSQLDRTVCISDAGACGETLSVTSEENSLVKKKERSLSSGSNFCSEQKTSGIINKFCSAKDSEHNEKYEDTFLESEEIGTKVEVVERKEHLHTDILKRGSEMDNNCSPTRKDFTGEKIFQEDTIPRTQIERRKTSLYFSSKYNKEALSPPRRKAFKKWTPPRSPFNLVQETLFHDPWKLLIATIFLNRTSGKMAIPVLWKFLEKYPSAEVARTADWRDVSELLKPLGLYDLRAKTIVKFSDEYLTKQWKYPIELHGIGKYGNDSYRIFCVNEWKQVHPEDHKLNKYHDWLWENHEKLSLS

As to `CC(C)S(=O)(=O)c1ccc2nccc(Nc3ccc4scnc4c3)c2c1`, the inhibition was 8% in [1] (Compound Concentration 10.0 uM); 12% in [2] (Compound Concentration 10.0 uM); -7.92% in assay [3] (Compound Concentration 10.0 uM); 9.85% in assay [4] (Compound Concentration 10.0 uM); 32.3% in assay [5] (Compound Concentration 10.0 uM); 49.5% in assay [6] (Compound Concentration 10.0 uM). Besides, the inhibition in assay [7] (setting [10]) was determined as 18.3%; in assay [8] (setting [10]), 1.58%; in [9] (Compound Concentration 10.0 uM), 9.41%.
As to `CC1(C)CCC(C)(C)c2cc(NC(=O)c3ccc(C(=O)O)cc3)ccc21`, the inhibition in assay [1] (Compound Concentration 10.0 uM) was 0.0471%; in assay [2] (Compound Concentration 10.0 uM) it was 31.6%; in [3] (Compound Concentration 10.0 uM), -4.53%; in [4] (Compound Concentration 10.0 uM), 1.34%; in assay [5] (Compound Concentration 10.0 uM), 7.75%; in assay [6] (Compound Concentration 10.0 uM), 47.2%. Moreover, the results for the inhibition in assay [7] (setting [10]), in assay [8] (setting [10]) and in assay [9] (Compound Concentration 10.0 uM) were 0.879%, 4.36% and 58.9%, respectively.
Turning to `Cc1cc(Nc2nccc(C)n2)cc(-c2cnc([C@@]3(O)CC[C@H](C(=O)O)C(C)(C)C3)s2)c1`, the inhibition in assay [1] (Compound Concentration 1.0 uM) was 2.21%; in assay [2] (Compound Concentration 1.0 uM) it was 9.85%; in assay [3] (Compound Concentration 1.0 uM), -7.58%; in assay [4] (Compound Concentration 1.0 uM), -4.56%; in [5] (Compound Concentration 1.0 uM), 13.6%; in [6] (Compound Concentration 1.0 uM) it was 40.8%. Besides, the inhibition in assay [7] (setting [11]) is 3.53%; in assay [8] (setting [11]), -5.61%; in assay [9] (Compound Concentration 1.0 uM), 25.6%.
For the compound `O=c1[nH]c2ccccc2n1CCCN1CCN(C(c2ccccc2)c2ccccc2)CC1`, the inhibition was 4.47% in [1] (Compound Concentration 10.0 uM); 10.8% in [2] (Compound Concentration 10.0 uM); -7.26% in assay [3] (Compound Concentration 10.0 uM); -3.26% in assay [4] (Compound Concentration 10.0 uM); 20.2% in assay [5] (Compound Concentration 10.0 uM); 97.2% in assay [6] (Compound Concentration 10.0 uM). The inhibition worked out at 1.43% in [7] (setting [10]), 5.38% in assay [8] (setting [10]) and 57.5% in assay [9] (Compound Concentration 10.0 uM).
As for `CN1CCN(c2ccnc(NCCc3ccccc3)n2)CC1`, the inhibition is 6.53% in assay [1] (Compound Concentration 10.0 uM); 9.82% in [2] (Compound Concentration 10.0 uM); 2.13% in assay [3] (Compound Concentration 10.0 uM); -9.83% in assay [4] (Compound Concentration 10.0 uM); 8.97% in [5] (Compound Concentration 10.0 uM); 50.4% in assay [6] (Compound Concentration 10.0 uM). Also, the inhibition in assay [7] (setting [10]) came to 16.7%; in assay [8] (setting [10]), 14.1%; in assay [9] (Compound Concentration 10.0 uM), 69%.
Regarding `CNCc1ccccc1-c1csc([C@H](C)Nc2nc(C)nc3cc(OC)c(OC)cc23)c1`, the inhibition is 6.69% in assay [1] (Compound Concentration 1.0 uM); 6.33% in assay [2] (Compound Concentration 1.0 uM); -4.23% in assay [3] (Compound Concentration 1.0 uM); 2.66% in [4] (Compound Concentration 1.0 uM); 19.4% in [5] (Compound Concentration 1.0 uM); 97.8% in assay [6] (Compound Concentration 1.0 uM). Further, the inhibition in assay [7] (setting [12]) was found to be 36.2%; in assay [8] (setting [12]), 26.3%; in assay [9] (Compound Concentration 1.0 uM), 58.7%.
For `C[C@]1(O)C[C@@H](c2nc(-c3ccc4ccc(-c5ccccc5)nc4c3)c3c(N)nccn32)C1`, the inhibition was 7.32% in assay [1] (Compound Concentration 10.0 uM); -7.95% in assay [2] (Compound Concentration 10.0 uM); 4.89% in assay [3] (Compound Concentration 10.0 uM); 10.6% in [4] (Compound Concentration 10.0 uM); 18.4% in assay [5] (Compound Concentration 10.0 uM); 57.9% in assay [6] (Compound Concentration 10.0 uM). In addition, the results for the inhibition in assay [7] (setting [10]), in [8] (setting [10]) and in [9] (Compound Concentration 10.0 uM) were 25.7%, 12.6% and 2.7%, respectively.
For `C=C1/C(=C\C=C2/CCC[C@]3(C)[C@@H]([C@H](C)CCCC(C)(C)O)CC[C@@H]23)C[C@@H](O)C[C@@H]1O`, the inhibition in assay [1] (Compound Concentration 10.0 uM) is -0.617%; in assay [2] (Compound Concentration 10.0 uM) it was 10.5%; in assay [3] (Compound Concentration 10.0 uM) it was -6.8%; in assay [4] (Compound Concentration 10.0 uM), -8.52%; in assay [5] (Compound Concentration 10.0 uM), 0.349%; in assay [6] (Compound Concentration 10.0 uM), 75.3%. Besides, the values for the inhibition in [7] (setting [10]), in assay [8] (setting [10]) and in assay [9] (Compound Concentration 10.0 uM) were -4.04%, -1.25% and 57%, respectively.
On to `CNC(=O)c1cc(C(=O)N[C@H]2[C@@H]3COC[C@@H]32)cc2c1O[C@@H](CF)[C@@H]2c1ccccc1`, for which the inhibition was 4.27% in assay [1] (Compound Concentration 10.0 uM); 6.72% in assay [2] (Compound Concentration 10.0 uM); 6.68% in assay [3] (Compound Concentration 10.0 uM); -3.92% in [4] (Compound Concentration 10.0 uM); 8.28% in assay [5] (Compound Concentration 10.0 uM); 52.5% in [6] (Compound Concentration 10.0 uM). The inhibition in assay [7] (setting [10]) is -6.61%; in assay [8] (setting [10]), 8.44%; in [9] (Compound Concentration 10.0 uM), 54.8%.

Usually inhibition stands for the relative decrease from the control value, in per cent.
